We go through two compounds from US4977144A, “Imidazo[4,5-b]pyridine derivatives as cardiovascular agents” (Ciba-Geigy Corporation, priority 1989, dated 1990).

SMILES strings stand for the structures.

In experiment [1] the target is T1, adenosine-2 (A-2) receptor (Rattus norvegicus, UniProt P30543).
T1 construct: striatal membrane preparations from corpus striatum of male Sprague-Dawley rats; from tissue; host or cells: corpus striatum of male Sprague-Dawley rats (membrane preparation)
As to the kind of experiment: adenosine-2 (A-2) receptor binding: inhibition of specific binding of 3H-NECA in rat striatal membrane preparations. More on the design: species or system male Sprague-Dawley rats. To be noted: for IC50: displacement of 4 nM 3H-NECA in the presence of 50 nM cyclopentyladenosine, rat striatal membranes, read-out: IC50 in the in vitro adenosine-2 receptor binding assay.

Experiment [2] deals with spontaneous hypertensive rat. As to the kind of experiment: blood pressure lowering effect in the spontaneous hypertensive rat on oral administration. The following applies: at a dose of about 10 mg/Kg p.o. In kind it is in vivo. As to the method: Indicative of in vivo adenosine receptor agonist activity, the hypotensive activity of the compounds of the invention can be measured in normotensive or spontaneous hypertensive rats on intravenous or oral administration.
The blood pressure lowering effect in the spontaneous hypertensive rat is determined on oral administration as known in the art.

T1 sequence (P30543 whole entry): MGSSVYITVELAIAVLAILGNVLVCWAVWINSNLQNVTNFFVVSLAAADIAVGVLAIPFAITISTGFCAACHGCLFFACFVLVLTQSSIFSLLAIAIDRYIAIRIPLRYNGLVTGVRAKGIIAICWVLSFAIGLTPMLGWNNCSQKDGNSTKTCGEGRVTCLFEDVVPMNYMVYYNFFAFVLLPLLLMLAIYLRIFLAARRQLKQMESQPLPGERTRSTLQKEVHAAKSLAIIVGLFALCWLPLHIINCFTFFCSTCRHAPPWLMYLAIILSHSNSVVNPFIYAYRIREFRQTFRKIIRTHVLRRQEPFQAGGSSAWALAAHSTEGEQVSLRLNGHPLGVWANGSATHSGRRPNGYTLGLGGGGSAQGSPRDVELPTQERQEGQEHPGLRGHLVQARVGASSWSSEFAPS

With `COc1ccc(CCNc2cc(N)c3ncn([C@@H]4O[C@H](CO)[C@@H](O)[C@H]4O)c3n2)cc1` [Example 15(1)], the IC50 in experiment [1] was roughly 0.07 µM.

In the case of `Nc1cc(NCCC2CCCCC2)nc2c1ncn2[C@@H]1O[C@H](CO)[C@@H](O)[C@H]1O` [Example 1, 7-amino-3-β-D-ribofuranosyl-N-(2-cyclohexylethyl)-3H-imidazo[4,5-b] pyridin-5-amine], the “lowers blood pressure in the spontaneous hypertensive rat model” value in experiment [2] was “effectively lowers blood pressure”. Besides, in experiment [1] (A-2 binding versus A-1 binding), the “greater potency at the A-2 receptor than at the A-1 receptor” value was “more than 100 fold”. Moreover, the IC50 in experiment [1] is roughly 0.1 µM.
